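Test compounds were applied to cells in 96-well plates for 48 hours at 5 doses. TGI: total growth inhibition.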
The compounds below were run on CAKI-1 renal (assay: DTP human tumour cell line panel, 48 h).

| SMILES | TGI |
| --- | --- |
| CC(=O)NC1C(OCc2ccccc2)OC(CO)C(O)C1OC(C)C(=O)NC(C)C(=O)NC(CCC(=O)NCCCNc1c2ccccc2nc2cccc([N+](=O)[O-])c12)C(N)=O (configuration not stated) | 7.87 µM |
| COc1cc(Nc2cnc3cc(F)c(F)cc3n2)cc(OC)c1OC | > 100 µM |
| COc1ccc(C2CC(=O)CC(c3ccc(OC)cc3)C23C(=O)NC(=O)NC3=O)cc1 (configuration not stated) | 65.3 µM |
| COC(C)(C)C1=CCC(C)CC1 (configuration not stated) | > 100 µM |
| C=C1CC(c2ccc(OCCCN3C(=O)c4ccccc4C3=O)c(OC)c2)OC1=O (configuration not stated) | 5.16 µM |
| c1ccc2sc(C3(N4CCCC4)CCCCCC3)cc2c1 | 61.2 µM |

What follows are compounds tested on COLO 205 colon (assay: DTP human tumour cell line panel, 48 h).

| SMILES | TGI |
| --- | --- |
| S=C(NCc1ccccc1)c1nc[nH]c1C(=S)NCc1ccccc1 | 12.9 µM |
| O=C(c1ccc(O)cc1)C1c2c3c(cc(O)c2C(c2ccc(O)cc2)C1c1cc(O)cc(O)c1)OC(c1ccc(O)cc1)C3c1cc2c(cc1O)OC(c1ccc(O)cc1)C2c1cc(O)cc(O)c1 (configuration not stated) | > 12.5 µM |
| Cc1cc2nc3c(C#N)c(-c4ccccc4)cc(Nc4ccc(Cl)cc4)n3c2cc1C | > 100 µM |
| CC(=O)OCCn1cnc2nc(Nc3ccccc3)nc(Cl)c21 | 88.1 µM |
| CCC1(CC)SCc2nc3ccccc3n21 | 40.2 µM |
| O=C1OC[C@@H]2Cc3cc4c(cc3[C@H](c3ccc5c(c3)OCO5)[C@@H]12)OCO4 | > 25 µM |
| N#C/C(C(=O)Nc1ccccc1)=C(/N)N1CCOCC1 | > 100 µM |
| O/N=C1/COC(C(F)(F)F)(C(F)(F)F)C1 | > 100 µM |
| O=S1(=O)OCCOS(=O)(=O)C1F | > 100 µM |
| C[C@]12CC[C@H](O)CC1=CC[C@@H]1[C@@H]2CC[C@]2(C)C(=O)[C@@H](N3CCOCC3)C[C@@H]12 | > 100 µM |
| CC(=O)n1nc(-c2ccccc2)n(/N=C/c2ccc([N+](=O)[O-])cc2)c1=O | > 100 µM |
| COc1ccc(C(=O)Sc2c(-c3ccccc3)c(=O)n(-c3ccccc3)c(=S)n2-c2ccccc2)cc1 | > 100 µM |
| Cc1ccc(S(=O)(=O)N/N=C/C(=C/c2ccc(Cl)cc2)CC(/C=N/NS(=O)(=O)c2ccc(C)cc2)=C\c2ccc(Cl)cc2)cc1 | 16.9 µM |
| COc1cc(C[S+]2CCCC2)c(SC)cc1C[S+]1CCCC1 | > 100 µM |
| COCCOCc1nc(C#N)c(N)o1 | > 100 µM |
| CC1=C(C#N)C(C#N)(C#N)C(NN(C)C)C1 (configuration not stated) | 16.1 µM |
| C[C@]12C=CC(=O)C=C1CC[C@H]1[C@@H]3C[C@@H](O)[C@](O)(C(=O)CO)[C@@]3(C)C[C@H](O)[C@@]12F | > 100 µM |
| CCSc1n/c(=C\c2ccco2)c2nnnn12 | > 100 µM |
| CCOC(=O)C1=C(C)N(C)C23OC4(C(=O)OC)CC2c2ccccc2C1N3C4=O (configuration not stated) | > 100 µM |
| CC(=O)c1c2c(cc3c1CC1(Cc4ccccc4C1=O)C3)CCC2 (configuration not stated) | 30.7 µM |
| CC(=O)NC1C(OCc2ccccc2)OC(CO)C(O)C1OC(C)C(=O)NC(C)C(=O)NC(CCC(=O)NCCCNc1c2ccccc2nc2cccc([N+](=O)[O-])c12)C(N)=O (configuration not stated) | 2.34 µM |
| COc1cc(Nc2cnc3cc(F)c(F)cc3n2)cc(OC)c1OC | > 100 µM |
| COc1ccc(C2CC(=O)CC(c3ccc(OC)cc3)C23C(=O)NC(=O)NC3=O)cc1 (configuration not stated) | 89 µM |
| COC(C)(C)C1=CCC(C)CC1 (configuration not stated) | > 100 µM |
| C=C1CC(c2ccc(OCCCN3C(=O)c4ccccc4C3=O)c(OC)c2)OC1=O (configuration not stated) | 5.33 µM |
| c1ccc2sc(C3(N4CCCC4)CCCCCC3)cc2c1 | 30.4 µM |

These compounds were tested on HCC-2998 colon (assay: DTP human tumour cell line panel, 48 h).

| SMILES | TGI |
| --- | --- |
| S=C(NCc1ccccc1)c1nc[nH]c1C(=S)NCc1ccccc1 | 23.6 µM |
| O=C(c1ccc(O)cc1)C1c2c3c(cc(O)c2C(c2ccc(O)cc2)C1c1cc(O)cc(O)c1)OC(c1ccc(O)cc1)C3c1cc2c(cc1O)OC(c1ccc(O)cc1)C2c1cc(O)cc(O)c1 (configuration not stated) | > 12.5 µM |
| Cc1cc2nc3c(C#N)c(-c4ccccc4)cc(Nc4ccc(Cl)cc4)n3c2cc1C | > 100 µM |
| CC(=O)OCCn1cnc2nc(Nc3ccccc3)nc(Cl)c21 | > 100 µM |
| CCC1(CC)SCc2nc3ccccc3n21 | > 100 µM |
| O=C1OC[C@@H]2Cc3cc4c(cc3[C@H](c3ccc5c(c3)OCO5)[C@@H]12)OCO4 | > 25 µM |
| N#C/C(C(=O)Nc1ccccc1)=C(/N)N1CCOCC1 | > 100 µM |
| O/N=C1/COC(C(F)(F)F)(C(F)(F)F)C1 | > 100 µM |
| O=S1(=O)OCCOS(=O)(=O)C1F | > 100 µM |
| C[C@]12CC[C@H](O)CC1=CC[C@@H]1[C@@H]2CC[C@]2(C)C(=O)[C@@H](N3CCOCC3)C[C@@H]12 | > 100 µM |
| CC(=O)n1nc(-c2ccccc2)n(/N=C/c2ccc([N+](=O)[O-])cc2)c1=O | > 100 µM |
| COc1ccc(C(=O)Sc2c(-c3ccccc3)c(=O)n(-c3ccccc3)c(=S)n2-c2ccccc2)cc1 | > 100 µM |
| Cc1ccc(S(=O)(=O)N/N=C/C(=C/c2ccc(Cl)cc2)CC(/C=N/NS(=O)(=O)c2ccc(C)cc2)=C\c2ccc(Cl)cc2)cc1 | 8.98 µM |
| COc1cc(C[S+]2CCCC2)c(SC)cc1C[S+]1CCCC1 | > 100 µM |
| COCCOCc1nc(C#N)c(N)o1 | > 100 µM |
| CC1=C(C#N)C(C#N)(C#N)C(NN(C)C)C1 (configuration not stated) | 32.1 µM |
| C[C@]12C=CC(=O)C=C1CC[C@H]1[C@@H]3C[C@@H](O)[C@](O)(C(=O)CO)[C@@]3(C)C[C@H](O)[C@@]12F | > 100 µM |
| CCSc1n/c(=C\c2ccco2)c2nnnn12 | > 100 µM |
| CCOC(=O)C1=C(C)N(C)C23OC4(C(=O)OC)CC2c2ccccc2C1N3C4=O (configuration not stated) | > 100 µM |
| CC(=O)c1c2c(cc3c1CC1(Cc4ccccc4C1=O)C3)CCC2 (configuration not stated) | > 100 µM |
| CC(=O)NC1C(OCc2ccccc2)OC(CO)C(O)C1OC(C)C(=O)NC(C)C(=O)NC(CCC(=O)NCCCNc1c2ccccc2nc2cccc([N+](=O)[O-])c12)C(N)=O (configuration not stated) | 2.52 µM |
| COc1ccc(C2CC(=O)CC(c3ccc(OC)cc3)C23C(=O)NC(=O)NC3=O)cc1 (configuration not stated) | 45.7 µM |
| COC(C)(C)C1=CCC(C)CC1 (configuration not stated) | > 100 µM |
| C=C1CC(c2ccc(OCCCN3C(=O)c4ccccc4C3=O)c(OC)c2)OC1=O (configuration not stated) | 27.7 µM |
| c1ccc2sc(C3(N4CCCC4)CCCCCC3)cc2c1 | 27.1 µM |
